Laboratory results published in patent publication US11053204B2, “Pyrimidinyloxy benzene derivatives as herbicides” (FMC Corporation, priority 2015, dated 2021).

Legend:
Format in all cases: in vivo
[1] = tested on: waterhemp (common waterhemp, Amaranthus rudis); assay: Test C postemergence, plant response rating; conditions: for Plant response rating, Waterhemp: scale 0 to 100; for Waterhemp plant response rating: scale 0 to 100 (0 no effect, 100 complete control)
Outline: (§1)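 Both timings shared one formulation, a non-phytotoxic solvent mixture with surfactant, and a greenhouse period of 13 to 15 d. Preemergence used seeded loam/sand or silt loam soil, postemergence used 2 to 18 cm plants; visual ratings ran from 0 (no effect) to 100 (complete control).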

[2] = tested on: ragweed (common ragweed, Ambrosia elatior); assay: Test C postemergence, plant response rating; conditions: Ambrosia artemisiifolia, post-emergence; for pest or weed control at 16 g/ha: 16 g ai/ha; for pest or weed control at 16 g/ha / pest or weed control at 31 g/ha: scale 0 to 100; for pest or weed control at 31 g/ha: 31 g ai/ha; for pest or weed control at 62 g/ha: 62 g ai/ha; for pest or weed control at 62 g/ha / pest or weed control at 125 g/ha: scale 0 to 100 (0 no effect, 100 complete control); for pest or weed control at 125 g/ha: 125 g ai/ha
Outline: as §1

[3] = tested on: galium (catchweed bedstraw, Galium aparine); assay: Test C postemergence, plant response rating; conditions: Galium, post-emergence; for pest or weed control at 16 g/ha: 16 g ai/ha; for pest or weed control at 16 g/ha / pest or weed control at 31 g/ha: scale 0 to 100; for pest or weed control at 31 g/ha: 31 g ai/ha; for pest or weed control at 62 g/ha: 62 g ai/ha; for pest or weed control at 62 g/ha / pest or weed control at 125 g/ha: scale 0 to 100 (0 no effect, 100 complete control); for pest or weed control at 125 g/ha: 125 g ai/ha
Outline: as §1

[4] = tested on: velvetleaf (Abutilon theophrasti); assay: Test C postemergence, plant response rating; conditions: Abutilon theophrasti, post-emergence; for pest or weed control at 16 g/ha: 16 g ai/ha; for pest or weed control at 16 g/ha / pest or weed control at 31 g/ha: scale 0 to 100; for pest or weed control at 31 g/ha: 31 g ai/ha; for pest or weed control at 62 g/ha: 62 g ai/ha, read-out: Velvetleaf plant response rating; for pest or weed control at 62 g/ha / pest or weed control at 125 g/ha: scale 0 to 100 (0 no effect, 100 complete control); for pest or weed control at 125 g/ha: 125 g ai/ha
Outline: as §1

[5] = tested on: sedge, umbrella (small-flower umbrella sedge, Cyperus difformis); assay: Test B flooded paddy test, plant response rating; conditions: Cyperus difformis, 312 h; 250 g ai/ha; Flood; scale of 0 to 100 where 0 is no effect and 100 is complete control; 13 to 15 days
Outline: (§2)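 In-water treatment: compound dosed into 3 cm flood over soil, water level unchanged throughout. Controls run alongside; visual assessment at day 13–15.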

[6] = tested on: ducksalad (Heteranthera limosa); assay: Test B flooded paddy test, plant response rating; conditions: Heteranthera limosa, 312 h; 250 g ai/ha; Flood; scale of 0 to 100 where 0 is no effect and 100 is complete control; 13 to 15 days
Outline: as §2

rice (Oryza sativa) = assay: Test B flooded paddy test, plant response rating; conditions: Oryza sativa, 312 h; 250 g ai/ha; Flood; scale of 0 to 100 where 0 is no effect and 100 is complete control; 13 to 15 days
Outline: as §2

[7] = tested on: barnyardgrass (Echinochloa crus-galli); assay: Test B flooded paddy test, plant response rating; conditions: Echinochloa crus-galli, 312 h; 250 g ai/ha; Flood; scale of 0 to 100 where 0 is no effect and 100 is complete control; 13 to 15 days
Outline: as §2

[8] = tested on: barnyardgrass (Echinochloa crus-galli); assay: Test C preemergence, plant response rating; conditions: Echinochloa crus-galli, pre-emergence, Preemergence; for pest or weed control at 62 g/ha: 62 g ai/ha; for pest or weed control at 62 g/ha / pest or weed control at 125 g/ha: scale of 0 to 100; for pest or weed control at 125 g/ha: 125 g ai/ha; for pest or weed control at 16 g/ha: 16 g ai/ha; for pest or weed control at 16 g/ha / pest or weed control at 31 g/ha: scale 0 to 100; for pest or weed control at 31 g/ha: 31 g ai/ha
[9] = tested on: pigweed (Amaranthus retroflexus); assay: Test A postemergence, visual injury rating; conditions: Amaranthus retroflexus, post-emergence, 240 h, 0 is no effect, 100 is complete control, read-out: Pigweed plant response rating (0 to 100 scale); for pest or weed control at 125 g/ha: 125 g ai/ha; for pest or weed control at 500 g/ha: 500 g ai/ha
Outline: (§3)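 Scoring: eye-based comparison with untreated controls, 0 for no effect through 100 for complete control, at about day 10. Treatments: directed soil spray preemergence; foliar spray postemergence on 2–10 cm plants at the one- to two-leaf stage. Medium: loam soil with sand.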

[10] = tested on: Italian ryegrass (Lolium multiflorum); assay: Test A postemergence, visual injury rating; conditions: Lolium multiflorum, post-emergence, 240 h, 0 is no effect, 100 is complete control, read-out: Ryegrass, Italian plant response rating (0 to 100 scale); for pest or weed control at 125 g/ha: 125 g ai/ha; for pest or weed control at 500 g/ha: 500 g ai/ha
Outline: as §3

[11] = tested on: ragweed (common ragweed, Ambrosia elatior); assay: Test A postemergence, visual injury rating; conditions: Ambrosia artemisiifolia, post-emergence, 240 h, 0 is no effect, 100 is complete control, read-out: Ragweed plant response rating (0 to 100 scale); for pest or weed control at 125 g/ha: 125 g ai/ha; for pest or weed control at 500 g/ha: 500 g ai/ha
Outline: as §3

[12] = tested on: blackgrass (Alopecurus myosuroides); assay: Test A postemergence, visual injury rating; conditions: Alopecurus myosuroides, post-emergence, 240 h, 0 is no effect, 100 is complete control, read-out: Blackgrass plant response rating (0 to 100 scale); for pest or weed control at 125 g/ha: 125 g ai/ha; for pest or weed control at 500 g/ha: 500 g ai/ha
Outline: as §3

[13] = tested on: wheat (Triticum aestivum); assay: Test A postemergence, visual injury rating; conditions: Triticum aestivum, post-emergence, 240 h, 0 is no effect, 100 is complete control, read-out: Wheat plant response rating (0 to 100 scale); for plant injury at 125 g/ha: 125 g ai/ha; for plant injury at 500 g/ha: 500 g ai/ha
Outline: as §3

[14] = tested on: galium (catchweed bedstraw, Galium aparine); assay: Test A postemergence, visual injury rating; conditions: Galium, post-emergence, 240 h, 0 is no effect, 100 is complete control, read-out: Galium plant response rating (0 to 100 scale); for pest or weed control at 125 g/ha: 125 g ai/ha; for pest or weed control at 500 g/ha: 500 g ai/ha
Outline: as §3

[15] = tested on: giant foxtail (Setaria faberii); assay: Test A postemergence, visual injury rating; conditions: Setaria faberi, post-emergence, 240 h, 0 is no effect, 100 is complete control, read-out: Foxtail, Giant plant response rating (0 to 100 scale); for pest or weed control at 125 g/ha: 125 g ai/ha; for pest or weed control at 500 g/ha: 500 g ai/ha
Outline: as §3

kochia (Kochia scoparia) = assay: Test A postemergence, visual injury rating; conditions: Bassia scoparia, post-emergence, 240 h, 0 is no effect, 100 is complete control, read-out: Kochia plant response rating (0 to 100 scale); for pest or weed control at 125 g/ha: 125 g ai/ha; for pest or weed control at 500 g/ha: 500 g ai/ha
Outline: as §3

[16] = tested on: barnyardgrass (Echinochloa crus-galli); assay: Test A postemergence, visual injury rating; conditions: Echinochloa crus-galli, post-emergence, 240 h, 0 is no effect, 100 is complete control, read-out: Barnyardgrass plant response rating (0 to 100 scale); for pest or weed control at 125 g/ha: 125 g ai/ha; for pest or weed control at 500 g/ha: 500 g ai/ha
Outline: as §3

corn (Zea mays) = assay: Test A postemergence, visual injury rating; conditions: Zea mays, post-emergence, 240 h, 0 is no effect, 100 is complete control, read-out: Corn plant response rating (0 to 100 scale); for plant injury at 125 g/ha: 125 g ai/ha; for plant injury at 500 g/ha: 500 g ai/ha
Outline: as §3

## C=CCCOC(=O)c1c(Br)cccc1Oc1ncc(Cl)cn1 [Compound 21, 3-buten-1-yl 2-bromo-6-[(5-chloro-2-pyrimidinyl)oxy]benzoate]
[1]; 16 g ai/ha
  Plant response rating, Waterhemp: 75
[1]; 31 g ai/ha
  Plant response rating, Waterhemp: 85
[1]; 62 g ai/ha
  Waterhemp plant response rating: 90
[1]; 125 g ai/ha
  Waterhemp plant response rating: 85
[2]
  pest or weed control at 16 g/ha: 10%
  pest or weed control at 31 g/ha: 10%
  pest or weed control at 62 g/ha: 45%
  pest or weed control at 125 g/ha: 55%
[3]
  pest or weed control at 16 g/ha: 55%
  pest or weed control at 31 g/ha: 80%
  pest or weed control at 62 g/ha: 75%
  pest or weed control at 125 g/ha: 80%
[4]
  pest or weed control at 16 g/ha: 40%
  pest or weed control at 31 g/ha: 60%
  pest or weed control at 62 g/ha: 60%
  pest or weed control at 125 g/ha: 70%
[5]
  pest or weed control at 250 g/ha: 100%
[6]
  pest or weed control at 250 g/ha: 70%
Rice (Oryza sativa)
  plant injury at 250 g/ha: 0%
[7]
  pest or weed control at 250 g/ha: 30%
[8]
  pest or weed control at 62 g/ha: 90%
  pest or weed control at 125 g/ha: 98%
  pest or weed control at 16 g/ha: 10%
  pest or weed control at 31 g/ha: 55%
[9]
  pest or weed control at 125 g/ha: 80%
  pest or weed control at 500 g/ha: 100%
[10]
  pest or weed control at 125 g/ha: 0%
  pest or weed control at 500 g/ha: 90%
[11]
  pest or weed control at 125 g/ha: 0%
  pest or weed control at 500 g/ha: 40%
[12]
  pest or weed control at 125 g/ha: 60%
  pest or weed control at 500 g/ha: 80%
[13]
  plant injury at 125 g/ha: 0%
  plant injury at 500 g/ha: 40%
[14]
  pest or weed control at 125 g/ha: 80%
  pest or weed control at 500 g/ha: 90%
[15]
  pest or weed control at 125 g/ha: 70%
  pest or weed control at 500 g/ha: 100%
Kochia (Kochia scoparia)
  pest or weed control at 125 g/ha: 90%
  pest or weed control at 500 g/ha: 100%
[16]
  pest or weed control at 125 g/ha: 70%
  pest or weed control at 500 g/ha: 100%
Corn (Zea mays)
  plant injury at 125 g/ha: 30%
  plant injury at 500 g/ha: 60%

## O=C(OCCC(F)(F)F)c1c(Br)cccc1Oc1ncc(Cl)cn1 [Compound 26, 3,3,3-trifluoropropyl 2-bromo-6-[(5-chloro-2-pyrimidinyl)oxy]benzoate]
[1]; 16 g ai/ha
  Plant response rating, Waterhemp: 95
[1]; 31 g ai/ha
  Plant response rating, Waterhemp: 98
[1]; 62 g ai/ha
  Waterhemp plant response rating: 98
[1]; 125 g ai/ha
  Waterhemp plant response rating: 100
[2]
  pest or weed control at 16 g/ha: 40%
  pest or weed control at 31 g/ha: 55%
  pest or weed control at 62 g/ha: 55%
  pest or weed control at 125 g/ha: 90%
[3]
  pest or weed control at 16 g/ha: 55%
  pest or weed control at 31 g/ha: 80%
  pest or weed control at 62 g/ha: 95%
  pest or weed control at 125 g/ha: 95%
[4]
  pest or weed control at 16 g/ha: 30%
  pest or weed control at 31 g/ha: 55%
  pest or weed control at 62 g/ha: 75%
  pest or weed control at 125 g/ha: 80%
[5]
  pest or weed control at 250 g/ha: 100%
[6]
  pest or weed control at 250 g/ha: 100%
Rice (Oryza sativa)
  plant injury at 250 g/ha: 20%
[7]
  pest or weed control at 250 g/ha: 60%
[8]
  pest or weed control at 62 g/ha: 100%
  pest or weed control at 125 g/ha: 100%
  pest or weed control at 16 g/ha: 40%
  pest or weed control at 31 g/ha: 75%
[9]
  pest or weed control at 125 g/ha: 100%
  pest or weed control at 500 g/ha: 100%
[10]
  pest or weed control at 125 g/ha: 70%
  pest or weed control at 500 g/ha: 80%
[11]
  pest or weed control at 125 g/ha: 30%
  pest or weed control at 500 g/ha: 60%
[12]
  pest or weed control at 125 g/ha: 100%
  pest or weed control at 500 g/ha: 100%
[13]
  plant injury at 125 g/ha: 40%
  plant injury at 500 g/ha: 90%
[14]
  pest or weed control at 125 g/ha: 100%
  pest or weed control at 500 g/ha: 100%
[15]
  pest or weed control at 125 g/ha: 100%
  pest or weed control at 500 g/ha: 100%
Kochia (Kochia scoparia)
  pest or weed control at 125 g/ha: 100%
  pest or weed control at 500 g/ha: 100%
[16]
  pest or weed control at 125 g/ha: 100%
  pest or weed control at 500 g/ha: 100%
Corn (Zea mays)
  plant injury at 125 g/ha: 60%
  plant injury at 500 g/ha: 100%
